Source: US20260022143A1, “Cyclic Peptide Inhibitors of IL-23” (JANSSEN PHARMACEUTICA NV, priority 2022, published 2026)
Positions of bridges follow the written chain, without caps; N, C: chain ends. Non-standard residues stand in square brackets, D forms with d. Residues, ends and D or L forms follow the SMILES beside them. *: point of attachment. Me3N+(CH2)2O(CH2)2O(CH2)2CO = C[N+](C)(C)CCOCCOCCC(=O)*; Trp(7-Me) = Cc1cccc2c(C[C@H](N)C(=O)O)c[nH]c12; dLys(Me3) = C[N+](C)(C)CCCC[C@@H](N)C(=O)O; 3Pal(5-Me) = Cc1cncc(C[C@H](N)C(=O)O)c1; 2Nal = N[C@@H](Cc1ccc2ccccc2c1)C(=O)O; AEF = NCCOc1ccc(C[C@H](N)C(=O)O)cc1; 3Pal = N[C@@H](Cc1cccnc1)C(=O)O; Lys(Me) = CNCCCC[C@H](N)C(=O)O; Pen = CC(C)(S)[C@H](N)C(=O)O; Thp = NC1(C(=O)O)CCOCC1; X3 = C[N+](C)(C)CCCCC*; Sar = CNCC(=O)O; X58 = NCCCCC*

How the values were obtained:
IL-23R = target: T1, IL-23R (Homo sapiens, UniProt Q5VWK5); assay: IL23R Reporter Assay; type: cell-based; settings: HEK293 cells containing IL-23R, IL-12RP1 and STAT-inducible firefly luciferase reporter; 10 ng/mL IL-23 (EC90); 5 h at 37° C.; read-out: IL23R Reporter Assay
T1 construct: host or cells: HEK293
T1 sequence (Q5VWK5 24-629): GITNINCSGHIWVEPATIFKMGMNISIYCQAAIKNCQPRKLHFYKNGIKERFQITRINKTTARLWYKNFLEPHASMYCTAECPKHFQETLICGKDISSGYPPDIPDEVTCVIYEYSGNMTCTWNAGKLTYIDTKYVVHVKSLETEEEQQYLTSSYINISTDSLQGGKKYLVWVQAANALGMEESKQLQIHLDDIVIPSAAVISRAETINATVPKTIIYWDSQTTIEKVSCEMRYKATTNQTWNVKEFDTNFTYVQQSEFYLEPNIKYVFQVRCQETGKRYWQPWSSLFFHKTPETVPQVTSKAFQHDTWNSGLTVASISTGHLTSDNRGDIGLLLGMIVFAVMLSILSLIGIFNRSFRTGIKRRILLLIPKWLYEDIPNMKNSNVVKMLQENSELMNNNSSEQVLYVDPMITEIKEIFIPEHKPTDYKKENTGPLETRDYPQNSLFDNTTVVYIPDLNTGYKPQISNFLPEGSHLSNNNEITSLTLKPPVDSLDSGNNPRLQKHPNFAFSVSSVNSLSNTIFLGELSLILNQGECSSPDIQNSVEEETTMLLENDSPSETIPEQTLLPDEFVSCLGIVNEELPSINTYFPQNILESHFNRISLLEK

[1] = Exposed Polar Surface Area (EPSA); type: physicochemical; settings: SFC on Chirex 3014 column; sample 1 mM DMSO stock; read-out: EPSA
Procedure, shortened: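 Polarity measured by SFC on a Chirex 3014 column (35 °C, 4 mL/min) with methanol/ammonium formate in CO2 as gradient eluent. Retention times were normalised to EPSA (Å^2) against eight reference compounds.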

SMILES	IC50 (IL-23R) [nM]	EPSA [1] [A^2]
CC(=O)NCCCC[C@@H]1NC(=O)[C@H](Cc2c[nH]c3c(C)cccc23)NC(=O)[C@H]([C@@H](C)O)NC(=O)[C@H](CC(N)=O)NC(=O)[C@@H](NC(=O)CCCc2ccc(I)cc2)C(C)(C)SSC(C)(C)[C@@H](C(=O)N[C@@H](Cc2ccc(OCCCCC[N+](C)(C)C)cc2)C(=O)N[C@@H](Cc2ccc3ccccc3c2)C(=O)NC2(C(=O)N[C@@H](CCCCNC(=O)COc3ccc(-c4ccc(F)cc4F)cc3C(=O)O)C(=O)N[C@@H](CC(N)=O)C(=O)N[C@@H](Cc3cccnc3)C(=O)N(C)CC(N)=O)CCOCC2)NC1=O [compound 525, IPBCO-Pen(3)-N-T-7MeW-K(Ac)-Pen(3)-TMAPF-2Nal-THP-K(DFN)-N-3Pya-Sar-CONH2]	51	195
CC(=O)NCCCC[C@@H]1NC(=O)[C@H](Cc2c[nH]c3c(C)cccc23)NC(=O)[C@H]([C@@H](C)O)NC(=O)[C@H](CC(N)=O)NC(=O)[C@@H](NC(C)=O)C(C)(C)SSC(C)(C)[C@@H](C(=O)N[C@@H](Cc2ccc(OCCCCC[N+](C)(C)C)cc2)C(=O)N[C@@H](Cc2ccc3ccccc3c2)C(=O)NC2(C(=O)N[C@@H](CCCCNC(=O)COc3ccc(-c4ccc(F)cc4F)cc3C(=O)O)C(=O)N[C@@H](CC(N)=O)C(=O)N[C@@H](Cc3cccnc3)C(=O)N(C)CC(N)=O)CCOCC2)NC1=O [compound 526, MeCO-Pen(3)-N-T-7MeW-K(Ac)-Pen(3)-TMAPF-2Nal-THP-K(DFN)-N-3Pya-Sar-CONH2]	6.1	184
CC(=O)NCCCC[C@@H]1NC(=O)[C@H](Cc2c[nH]c3c(C)cccc23)NC(=O)[C@H]([C@@H](C)O)NC(=O)[C@H](CC(N)=O)NC(=O)[C@@H](NC(=O)COc2ccc(-c3ccc(F)cc3F)cc2C(=O)O)C(C)(C)SSC(C)(C)[C@@H](C(=O)N[C@@H](Cc2ccc(OCCCCC[N+](C)(C)C)cc2)C(=O)N[C@@H](Cc2ccc3ccccc3c2)C(=O)NC2(C(=O)N[C@@H](CCCCNC(C)=O)C(=O)N[C@@H](CC(N)=O)C(=O)N[C@@H](Cc3cccnc3)C(=O)N(C)CC(N)=O)CCOCC2)NC1=O [compound 527, DFNCO-Pen(3)-N-T-7MeW-K(Ac)-Pen(3)-TMAPF-2Nal-THP-K(Ac)-N-3Pya-Sar-CONH2]	3.7	189
CC(=O)N(C)CCCC[C@@H]1NC(=O)[C@H](Cc2c[nH]c3c(C)cccc23)NC(=O)[C@H]([C@@H](C)O)NC(=O)[C@H](CC(=O)N(C)C)NC(=O)[C@@H](NC(=O)CCOCCOCC[N+](C)(C)C)C(C)(C)SSC(C)(C)[C@@H](C(=O)N[C@@H](Cc2ccc(OCCCCCN)cc2)C(=O)N[C@@H](Cc2ccc3ccccc3c2)C(=O)NC2(C(=O)N[C@@H](CCCCN(C)C(C)=O)C(=O)N[C@@H](CC(N)=O)C(=O)N[C@@H](Cc3cccnc3)C(=O)N(C)CC(=O)N(C)C)CCOCC2)NC1=O [compound 528, cPEG3aCO-Pen(3)-N(N(Me)2)-T-7MeW-K(NMeAc)-Pen(3)-APF-2Nal-THP-K(NMeAc)-N-3Pya-Sar-CON(Me)2] ({Me3N+(CH2)2O(CH2)2O(CH2)2CO}-[Pen]D(NMe2)T[Trp(7-Me)][Lys(Me)](Ac)[Pen]Y(X58)[2Nal][Thp][Lys(Me)](Ac)N[3Pal][Sar]-NMe2; disulfide 1-6)	3.8	163
CC(=O)NCCCC[C@@H]1NC(=O)[C@H](Cc2c[nH]c3c(C)cccc23)NC(=O)[C@H]([C@@H](C)O)NC(=O)[C@H](CC(N)=O)NC(=O)[C@@H](NC(C)=O)C(C)(C)SSC(C)(C)[C@@H](C(=O)N[C@@H](Cc2ccc(OCCCCC[N+](C)(C)C)cc2)C(=O)N[C@@H](Cc2ccc3ccccc3c2)C(=O)NC2(C(=O)N[C@@H](CCCCNC(C)=O)C(=O)N[C@@H](CC(N)=O)C(=O)N[C@@H](Cc3cccnc3)C(=O)N(C)CC(N)=O)CCCCC2)NC1=O [compound 538, MeCO-Pen(3)-N-T-7MeW-K(Ac)-Pen(3)-TMAPF-2Nal-Achx-K(Ac)-N-3Pya-Sar-CONH2]	3.5	163

The next compounds have a lower IC50 (IL-23R) than those just listed; values first:

IC50 (IL-23R) [nM]	EPSA [1] [A^2]	SMILES
0.9	171	CC(=O)NCCCC[C@@H]1NC(=O)[C@H](Cc2c[nH]c3c(C)cccc23)NC(=O)[C@H]([C@@H](C)O)NC(=O)[C@H](CC(N)=O)NC(=O)[C@@H](NC(=O)[C@@H](CCCNC(=N)N)NC(C)=O)C(C)(C)SSC(C)(C)[C@@H](C(=O)N[C@@H](Cc2ccc(OCCCCC[N+](C)(C)C)cc2)C(=O)N[C@@H](Cc2ccc3ccccc3c2)C(=O)NC2(C(=O)N[C@@H](CCCCNC(C)=O)C(=O)N[C@@H](CC(N)=O)C(=O)N[C@@H](Cc3cncc(C)c3)C(=O)N(C)CC(N)=O)CCOCC2)NC1=O [compound 532, MeCO-r-Pen(3)-N-T-7MeW-K(Ac)-Pen(3)-TMAPF-2Nal-THP-K(Ac)-N-5MePyridinAla-Sar-CONH2] (Ac-[dR][Pen]NT[Trp(7-Me)]K(Ac)[Pen]Y(X3)[2Nal][Thp]K(Ac)N[3Pal(5-Me)][Sar]-NH2; disulfide 2-7)
1.6	170	CC(=O)NCCCC[C@@H]1NC(=O)[C@H](Cc2c[nH]c3c(C)cccc23)NC(=O)[C@H]([C@@H](C)O)NC(=O)[C@H](CC(N)=O)NC(=O)[C@@H](NC(=O)[C@@H](CCCC[N+](C)(C)C)NC(C)=O)C(C)(C)SSC(C)(C)[C@@H](C(=O)N[C@@H](Cc2ccc(OCCN)cc2)C(=O)N[C@@H](Cc2ccc3ccccc3c2)C(=O)NC2(C(=O)N[C@@H](CCCCNC(C)=O)C(=O)N[C@@H](CC(N)=O)C(=O)N[C@@H](Cc3cncc(C)c3)C(=O)N(C)CC(N)=O)CCOCC2)NC1=O [compound 533, MeCO-k(Me)3-Pen(3)-N-T-7MeW-K(Ac)-Pen(3)-AEF-2Nal-THP-K(Ac)-N-5MePyridinAla-Sar-CONH2] (Ac-[dLys(Me3)][Pen]NT[Trp(7-Me)]K(Ac)[Pen][AEF][2Nal][Thp]K(Ac)N[3Pal(5-Me)][Sar]-NH2; disulfide 2-7)
2.1	172	CC(=O)NCCCC[C@@H]1NC(=O)[C@H](Cc2c[nH]c3c(C)cccc23)NC(=O)[C@H]([C@@H](C)O)NC(=O)[C@H](CC(N)=O)NC(=O)[C@@H](NC(=O)[C@@H](CCCC[N+](C)(C)C)NC(C)=O)C(C)(C)SSC(C)(C)[C@@H](C(=O)N[C@@H](Cc2ccc(OCCCCC[N+](C)(C)C)cc2)C(=O)N[C@@H](Cc2ccc3ccccc3c2)C(=O)NC2(C(=O)N[C@@H](CCC(=O)O)C(=O)N[C@@H](CC(N)=O)C(=O)N[C@@H](Cc3cncc(C)c3)C(=O)N(C)CC(N)=O)CCOCC2)NC1=O [compound 534, MeCO-k(Me)3-Pen(3)-N-T-7MeW-K(Ac)-Pen(3)-TMAPF-2Nal-THP-E-N-5MePyridinAla-Sar-CONH2] (Ac-[dLys(Me3)][Pen]NT[Trp(7-Me)]K(Ac)[Pen]Y(X3)[2Nal][Thp]EN[3Pal(5-Me)][Sar]-NH2; disulfide 2-7)
0.97	187	CC(=O)NCCCC[C@@H]1NC(=O)[C@H](Cc2c[nH]c3c(C)cccc23)NC(=O)[C@H]([C@@H](C)O)NC(=O)[C@H](CC(N)=O)NC(=O)[C@@H](NC(=O)[C@@H](CCCNC(=N)N)NC(=O)CCOCCOCC[N+](C)(C)C)C(C)(C)SSC(C)(C)[C@@H](C(=O)N[C@@H](Cc2ccc(OCCN)cc2)C(=O)N[C@@H](Cc2ccc3ccccc3c2)C(=O)NC2(C(=O)N[C@@H](CCCCNC(C)=O)C(=O)N[C@@H](CC(N)=O)C(=O)N[C@@H](Cc3cncc(C)c3)C(=O)N(C)CC(N)=O)CCOCC2)NC1=O [compound 541, cPEG3aCO-r-Pen(3)-N-T-7MeW-K(Ac)-Pen(3)-AEF-2Nal-THP-K(Ac)-N-5MePyridinAla-Sar-CONH2] ({Me3N+(CH2)2O(CH2)2O(CH2)2CO}-[dR][Pen]NT[Trp(7-Me)]K(Ac)[Pen][AEF][2Nal][Thp]K(Ac)N[3Pal(5-Me)][Sar]-NH2; disulfide 2-7)
2	179	CC(=O)NCCCC[C@@H]1NC(=O)[C@H](Cc2c[nH]c3c(C)cccc23)NC(=O)[C@H]([C@@H](C)O)NC(=O)[C@H](CC(N)=O)NC(=O)[C@@H](NC(=O)[C@@H](CCCNC(=N)N)NC(C)=O)C(C)(C)SSC(C)(C)[C@@H](C(=O)N[C@@H](Cc2ccc(OCCCCC[N+](C)(C)C)cc2)C(=O)N[C@@H](Cc2ccc3ccccc3c2)C(=O)NC2(C(=O)N[C@@H](CCC(=O)O)C(=O)N[C@@H](CC(N)=O)C(=O)N[C@@H](Cc3cncc(C)c3)C(=O)N(C)CC(N)=O)CCOCC2)NC1=O [compound 543, MeCO-r-Pen(3)-N-T-7MeW-K(Ac)-Pen(3)-TMAPF-2Nal-THP-E-N-5MePyridinAla-Sar-CONH2] (Ac-[dR][Pen]NT[Trp(7-Me)]K(Ac)[Pen]Y(X3)[2Nal][Thp]EN[3Pal(5-Me)][Sar]-NH2; disulfide 2-7)
